Measurements reported in patent publication US20240006031A1, “PHYSIOLOGICALLY-BASED PHARM[…] MODEL” (CHA UNIVERSITY INDUSTRY-ACADEMIC COOPERATION FOUNDATION, priority 2020, published 2024).
Read-outs that look alike come from different tables or passages of the source.

Tests used:
[1] = PFHxS standard exposure calculation and risk assessment using human PBPK core model; conditions: standard exposure 9.7 μg/kg/day
From the text: The final parameters were used to calculate the correlation between the mean blood concentration at steady state and the external dose during repeated exposure to PFHxS. Specifically, using a human PBPK model constructed using human physiological parameters and substance-intrinsic parameters, a dose range was simulated and set, and the correlations described above were derived using regression analysis.
Next, the interspecies uncertainty factor (UFA) was applied to calculate the steady-state Caverage,human in humans. Specifically, the PFHxS PODhuman in the human body was calculated by using the correlation equation between the average blood concentration (Caverage) and the external dose during repeated exposure to PFHxS from which Caverage,human was derived. Next, the intraspecies uncertainty factor (UFH) was applied to the PODhuman to finalize the PFHxS standard exposure in the human body.
The PFHxS reference standard dose for external dose to PFHxS was used to derive the margin of safety (MoS) of PFHxS for men and women. Specifically, the blood PFHxS concentrations of men in Siheung (2.29 ng/mL) and women in Daegu (1.75 ng/mL), which are highly exposed to PFHxS, were substituted into the above correlation equation between the average blood concentration (Caverage) and the external dose to calculate the external dose.

[2] = Internal dose of PFHxS from rat model Caverage,rat at NOAEL with uncertainty factors; set-up: species or system human; conditions: versus internal dose 412.7 ng/mL
Method: First, to obtain the internal dose of PFHxS, the UFA was applied to the rat model by finding the Caverage,rat resulting from repeated exposure to NOAEL.
As a result, BEPOD was calculated as 4127.4 ng/mL.

[3] = cited from earlier work

O=S(=O)(O)C(F)(F)C(F)(F)C(F)(F)C(F)(F)C(F)(F)C(F)(F)F [PFHxS]
margin of safety (MoS) ([1]; men (Siheung, blood PFHxS 2.29 ng/mL)): 180.3 | margin of safety (MoS) ([1]; women (Daegu, blood PFHxS 1.75 ng/mL)): 235.9 | actual blood levels in Koreans compared with calculated internal dose [2]: in the safe zone | blood PFHxS concentration ([3]; men in Daegu): 2.19 ng/mL | blood PFHxS concentration ([3]; men in Siheung): 2.29 ng/mL | blood PFHxS concentration ([3]; women in Daegu): 1.75 ng/mL | blood PFHxS concentration ([3]; women in Siheung): 1.35 ng/mL
